From US7714014B2, “Targeting GLI proteins in human cancer by small molecules” (The Regents of the University of California, priority 2005, dated 2010)

Experiments:
H1299 and A549 cells = experiment: Cytotoxicity and apoptosis assays; type: cell-based, human; conditions: 10, 30, 50, and 100 μM; data not shown
Description: (§1) Typically, the small molecule compounds of the present invention were dissolved in DMSO at a concentration of 30 mM. The small molecule compounds were then tested under cell culture conditions at different concentrations ranging from 0, 10, 30, 50, to 100 uM. To determine cell survival after treatment, the cells were incubated with the small molecule compounds in 6-well plates for about 3 days. After removal of the cell culture medium, 1-ml of 0.5% crystal violet solution (prepared in 20% ethanol and 20% methanol) was added to stain the cells for 5 min. Then the crystal violet solution was rinsed clean with tap water. Cell survival was estimated based on the density of crystal stained plates.
(§2) Apoptosis was analyzed by using an Annexin V FITC Apoptosis Detection Kit (Biosource, Camarillo, Calif.), according to the manufacturer's protocol. After treatment with different small molecule compounds at various concentrations for about 3 days, cells were harvested by trypsinization, stained and immediately analyzed by flow cytometry (FACScan; Decton Dickinson, Franklin Lake, N.J.). Early apoptotic cells with exposed phosphatidylserine but intact cell membranes will bind to Annexin V-FITC, but not propidium iodide (PI). Cells in necrotic or late apoptotic stages will be labeled with both Annexin V-FITC and PI. […]

[1] = system: human SOCS3 promoter in NSCLC cell line A549; experiment: SOCS3 promoter-luciferase reporter assay; type: cell-based; conditions: A549, 30 μM, 18-24 hours
Description: One day before transfection, cells (1×10^5) were plated in 12-well plates with growth medium without antibiotics. When cells reached 80-90% of confluence they were co-transfected using 0.5 μg of each promoter construct in pGL3Basic vector and 0.025 μg pRL-TK Vector (Promega; Madison, Wis.) containing Renilla Luciferase as an internal control for the transformation efficiency. Lipofectamine 2000™ (Invitrogen Life Technologies) was used to mediate transfection for about 6 hours. Then the medium was replaced with fresh medium containing various small molecule compounds at a concentration of 30 μM, and the resulting cells were cultured for an additional 18-24 hours and subjected to luciferase assay. Briefly, cells were lysed in a lysis buffer and Firefly and Renilla Luciferase activities in cells of each well, were measured using Dual-Luciferase Assay System (Promega) and an illuminometer. The measured luciferase activities were normalized to pRL-TK Vector activity and were given relative to the basal activity of empty pGL3-Basic Vector, which was set to unity. The data shown represent mean values (±S.D.). All measurements were performed in triplicate and repeated in at least three independent experiments. The human Wnt-2 promoter-luciferase construct, the human SOCS3 promoter-Luciferase construct and the human Gremlin promoter-luciferase construct were cloned and characterized in the laboratory of Dr. Jablons at the University of California, San Francisco (San Francisco, Calif.; He et al., Biochem Biophy Res Comm, 2003; and unpublished data). The 6GLI-TKO-luciferase construct (containing 6 repeats of consensus GLI DNA binding sequence) was kindly provided by Dr. Matthias Hebrok's laboratory at the University of California, San Francisco (San Francisco, Calif.).
As a third specificity test for the small molecule compounds of the present invention, the ability of these compounds to regulate the expression of genes that are not down-stream targets of the Gli activation was analyzed. SOCS3, an inhibitor and down-stream target gene of JAK/STAT pathway was chosen for this experiment. Expression of SOCS3 is not under control of Gli and/or Wnt activation. Furthermore, no GLI and TCF binding sites were found in the human SOCS3 promoter cloned in the laboratory of Dr. Jablons (University of California, San Francisco; data not shown). Thus, SOCS3 promoter-luciferase reporter activity was measured after the treatment of the NSCLC cell line A549 with small molecule compounds FN1-5, FN1-7, FN1-8, and FN1-9U.

[2] = system: mesothelioma cell line MS-1; experiment: Cytotoxicity and apoptosis assays; type: cell-based, human; conditions: 10, 30, 50, and 100 μM (FN1-9U effect at 100 μM)
Description: as §1, §2

[3] = system: colon cancer cell lines SW480 and HCT116; experiment: Cytotoxicity and apoptosis assays; type: cell-based, human; conditions: 10, 30, 50, and 100 μM; data not shown
Description: as §1, §2

melanoma cell line LOX = experiment: Cell survival assay (crystal violet); type: cell-based, human; conditions: 100 μM, 3 days
Description: as §1
The effect of small molecule compounds FN1-5, FN1-8, FN1-7, FN1-9U, and FN1-9S was tested using a cytotoxicity assay and the melanoma cell line LOX. LOX cells were plated in 6-well plates and incubated with 100 μM of each compound (stocks were dissolved in DMSO at 30 mM) for 3 days, as described herein. […] Live cells were stained by 0.5% crystal violet.
Cell killing was also tested using human melanoma cell line LOX and different doses of the small molecule compounds FN1-5 and FN1-8. LOX cells were plated in 6-well plates and incubated with 10, 30, and 50 μM of each compound for 3 days, as described herein.

[4] = system: primary cultured human mesothelioma cells; experiment: Cell survival assay (crystal violet); type: cell-based; conditions: 50 and 100 μM, 3 days
Description: Fresh cancer tissue and adjacent normal tissue from patients undergoing curative primary resection of their tumors were collected at the time of surgery (IRB approval H8714-15319-040), and immediately snap-frozen in liquid nitrogen. These tissue samples were kept at −170° C. in a liquid nitrogen freezer until further use. Primary tissue cultures were prepared as follows: Fresh cancer tissue was obtained with consent from patients undergoing resection, cut into small pieces (1-2 mm in diameter), and then digested with Collagenase A (Roche Applied Science, Indianapolis, Ind.) at room temperature for 2 hours according to manufacture's protocol. Single cells from the digestion were spun down and the cell pellets were washed twice using RPMI 1640 supplemented with 10% fetal bovine serum, penicillin (100 IU/ml) and streptomycin (100 μg/ml). Then, the cells were resuspended in the same medium and cultured in 6-well plates at 37° C. in a humid incubator with 5% CO2 until they were ready for further treatments.
as §1
Next, the effect of different small molecule compounds on primary cultured human mesothelioma cells freshly made from tissue samples was examined. The primary cultures were plated in 6-well plates as described herein and incubated with 50 and 100 μM of each compound (FN1-5, FN1-7, FN1-8, and FN3-5; stocks were dissolved in DMSO at 30 mM) for 3 days. […] (FIG. 8).

[5] = system: normal human muscle cells; experiment: Cell survival assay (crystal violet); type: cell-based; conditions: 1, 10, 30, and 50 μM, 3 days
Description: as §1
The cell killing effect of small molecule compounds FN1-8, FN1-7, and FN1-5 at different doses was examined in normal human muscle cells. […] Normal muscle cells were plated in 6-well plates and incubated with 1, 10, 30, and 50 μM of each compound for 3 days, in the same manner as described herein for similar other experiments. […] Both FN1-5 and FN1-8 seem to be specific in killing cancer cells.

Row | SMILES | cell killing effect or apoptosis (H1299 and A549 cells) | SOCS3 promoter activity [1] | cell killing effect or apoptosis [2] | cell killing effect or apoptosis [3] | cell killing effect (melanoma cell line LOX) | cell killing effect [4] | cell killing effect in normal cells [5]
1 | O=C(O)CCCCNC(=O)C1C(c2ccccc2)=NN(c2ccccc2)C1c1ccccc1 (stereo not shown) [FN1-9U, 5-(1,3,5-Triphenyl-4,5-dihydro-pyrazole-4-carbonyl)aminopentanoic acid] | no noticeable cell killing effect or apoptosis | inactive | some cell killing | No dramatic cell killing effect or apoptosis | Some killing |  | 
2 | CC(C)CC1=NN(c2ccccc2)C(CC(C)C)C1C(=O)NCCCCCO (stereo not shown) [FN3-5, N-(5-Hydroxypentyl)-1-phenyl-3,5-bis(isobutyl)-4,5-dihydro-pyrazole-4-carboxyamide] |  |  |  |  |  | No significant cell killing | 
3 | O=C(NCCCO)C1C(c2ccccc2)=NN(c2ccccc2)C1c1ccccc1 (stereo not shown) [FN1-7, N-(3-Hydroxypropyl)-1,3,5-triphenyl-4,5-dihydro-pyrazole-4-carboxyanide] |  | inactive |  |  | Some killing | No significant cell killing | No noticeable cell killing effect
4 | O=C(O)CCCCNC(=O)C1C(c2ccccc2)C(c2ccccc2)=NN1c1ccccc1 (stereo not shown) [FN1-9S, 5-(1,3,4-triphenyl-4,5-dihydro-pyrazole-5-carbonyl)aminopentanoic acid] | no noticeable cell killing effect or apoptosis |  | no cell killing effect or apoptosis | No dramatic cell killing effect or apoptosis |  |  | 
